Assay results taken from patent publication US7964613B2 (Asahi Kasei Pharma Corporation, priority 2007, dated 2011).

Tested on: rabbit normal intraocular pressure
Experiment: Intraocular pressure reducing action
Assay type: in vivo, Japanese white rabbit
Conditions: Oryctolagus cuniculus, topical; 3 mM aqueous solution, 50 μl to the left eye; max IOP reduction (2, 4, 6 hours) / value immediately before administration; read-out: intraocular pressure reducing degree
Protocol: A Japanese white rabbit having a body weight of about 2 kg was placed in a positioner and naturalized for one week before the experiment. An opthalmologic local anesthesant (Benoxil) was administered to both eyes, and then intraocular pressure was measured by using a tonometer (Classic 30, Solan). A 3 mM aqueous solution of a test compound was administered in a volume of 50 μl to the left eye, and the right eye was not treated (control eye). The intraocular pressure values were measured for the left and right eyes immediately before, and 2, 4 and 6 hours after the administration of the aqueous solution of the test compound, and the difference of the measured values for the left and right eyes was considered an intraocular pressure reduction value of the test medicament at each measurement time. The largest difference of the values for the left and right eyes among the measured values at the measurement times (after 2, 4 and 6 hours) was considered the maximum intraocular pressure reduction value (max ? IOP) of each test medicament. The intraocular pressure reducing degree representing the intraocular pressure reducing action of each test medicament was calculated according to the following formula. Since rabbits show significant daily variation of intraocular pressure, daily variation is added when change of intraocular pressure is measured over time, and the intraocular pressure reducing action may be overestimated. Therefore, we used this calculation method of intraocular pressure reduction value in order to minimize the influence of the variation. Intraocular pressure reducing degree(%)=(max ? IOP/Intraocular pressure value immediately before administration)×100

Row | SMILES | inhibition in vivo at 3000 µM [%]
1 | CN1CCN(CC(=O)N[C@H]2CCN(S(=O)(=O)c3cccc4cncc(Cl)c34)C2)CC1 [Example 89, (S)-3-[2-(4-Methylpiperazin-1-yl)acetyl]amino-1-(4-chloro-5-isoquinolinesulfonyl)pyrrolidine] | 5 to 10
2 | COCC(=O)N(C)[C@H]1CCN(S(=O)(=O)c2cccc3cncc(Cl)c23)C1 [Example 67-1, (S)-3-[N-(2-Methoxyacetyl)-N-methyl]amino-1-(4-chloro-5-isoquinolinesulfonyl)pyrrolidine] | 10 to 20
3 | CN(C)CCC(=O)N[C@H]1CCN(S(=O)(=O)c2cccc3cncc(Cl)c23)C1 [Example 78, (S)-3-[3-(Dimethylamino)propionyl]amino-1-(4-chloro-5-isoquinolinesulfonyl)pyrrolidine] | 10 to 20
4 | COCCOCCOCC(=O)N[C@H]1CCN(S(=O)(=O)c2cccc3cncc(Cl)c23)C1 [Example 99, (S)-3-[2-[2-(2-Methoxyethoxy)ethoxy]acetyl]amino-1-(4-chloro-5-isoquinolinesulfonyl)pyrrolidine] | 10 to 20
5 | N#CCC(=O)N[C@H]1CCN(S(=O)(=O)c2cccc3cncc(Cl)c23)C1 [Example 90, (S)-3-(2-Cyanoacetyl)amino-1-(4-chloro-5-isoquinolinesulfonyl)pyrrolidine] | 10 to 20
6 | O=C(CN1CCCC1=O)N[C@H]1CCN(S(=O)(=O)c2cccc3cncc(Cl)c23)C1 [Example 87, (S)-3-[2-(2-Oxopyrrolidin-1-yl)acetyl]amino-1-(4-chloro-5-isoquinolinesulfonyl)pyrrolidine] | 10 to 20
7 | COCC(=O)N[C@H]1CCN(S(=O)(=O)c2cccc3cncc(C)c23)C1 [Example 70, (S)-3-(2-Methoxyacetyl)amino-1-(4-methyl-5-isoquinolinesulfonyl)pyrrolidine] | ≥ 20
8 | NCC1CCCCN1S(=O)(=O)c1cccc2cncc(Cl)c12 (stereo not drawn) [Example 61, 2-(Aminomethyl)-1-(4-chloro-5-isoquinolinesulfonyl)piperidine] | 10 to 20
9 | O=C(CCO)N[C@H]1CCN(S(=O)(=O)c2cccc3cncc(Cl)c23)C1 [Example 75, (S)-3-(3-Hydroxypropionyl)amino-1-(4-chloro-5-isoquinolinesulfonyl)pyrrolidine] | 10 to 20
10 | O=C(CNC(=O)c1cccnc1)N[C@H]1CCN(S(=O)(=O)c2cccc3cncc(Cl)c23)C1 [Example 95, (S)-3-[(2-Nicotinamino)acetyl]amino-1-(4-chloro-5-isoquinolinesulfonyl)pyrrolidine] | 10 to 20
11 | CSCCC(=O)N[C@H]1CCN(S(=O)(=O)c2cccc3cncc(Cl)c23)C1 [Example 79, (S)-3-[3-(Methylthio)propionyl]amino-1-(4-chloro-5-isoquinolinesulfonyl)pyrrolidine] | 10 to 20
12 | O=C(Cn1cncn1)N[C@H]1CCN(S(=O)(=O)c2cccc3cncc(Cl)c23)C1 [Example 84, (S)-3-[2-(1H-1,2,4-Triazol-1-yl)acetyl]amino-1-(4-chloro-5-isoquinolinesulfonyl)pyrrolidine] | 10 to 20
13 | O=C(Cn1ccnc1)N[C@H]1CCN(S(=O)(=O)c2cccc3cncc(Cl)c23)C1 [Example 86, (S)-3-[2-(1H-Imidazol-1-yl)acetyl]amino-1-(4-chloro-5-isoquinolinesulfonyl)pyrrolidine] | 10 to 20
14 | COCCOCC(=O)N[C@H]1CCN(S(=O)(=O)c2cccc3cncc(Cl)c23)C1 [Example 98, (S)-3-[2-(2-Methoxyethoxy)acetyl]amino-1-(4-chloro-5-isoquinolinesulfonyl)pyrrolidine] | ≥ 20
15 | COCC(=O)N[C@H]1CCN(S(=O)(=O)c2cccc3cncc(F)c23)C1 [Example 115, (S)-3-(2-Methoxyacetyl)amino-1-(4-fluoro-5-isoquinolinesulfonyl)pyrrolidine] | 5 to 10
